“And” between values parts separate entries of the source, which are not always exact repeats. Equal values may be shown once.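 Each compound was tested at five concentrations against cells in 96-well plates for 48 hours. GI50 = concentration required for 50% inhibition of growth. Definition used: TGI = concentration required for complete inhibition of growth.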
Key:
Test in all cases: NCI tumour cell line growth inhibition, 48 h
OVCAR-5 ovarian = system: OVCAR-5 ovarian
SN12C renal = system: SN12C renal
NCI/ADR-RES ovarian = system: NCI/ADR-RES ovarian
OVCAR-3 ovarian = system: OVCAR-3 ovarian
SF-295 CNS = system: SF-295 CNS
SR leukemia = system: SR leukemia
HOP-92 NSCLC = system: HOP-92 NSCLC
HCT-15 colon = system: HCT-15 colon
DU-145 prostate = system: DU-145 prostate
TK-10 renal = system: TK-10 renal

SMILES	GI50 (OVCAR-5 ovarian)	TGI (OVCAR-5 ovarian)	GI50 (SN12C renal)	TGI (SN12C renal)	GI50 (NCI/ADR-RES ovarian)	TGI (NCI/ADR-RES ovarian)	GI50 (OVCAR-3 ovarian)	TGI (OVCAR-3 ovarian)	GI50 (SF-295 CNS)	TGI (SF-295 CNS)	GI50 (SR leukemia)	TGI (SR leukemia)	GI50 (HOP-92 NSCLC)	TGI (HOP-92 NSCLC)	GI50 (HCT-15 colon)	TGI (HCT-15 colon)	GI50 (DU-145 prostate)	TGI (DU-145 prostate)	GI50 (TK-10 renal)	TGI (TK-10 renal)
O=S(=O)(N=C1C(Cl)=C(Cl)C(=NS(=O)(=O)c2ccccc2)C(Cl)=C1Cl)c1ccccc1	45.2 µM	> 100 µM	29.9 µM	> 100 µM	26.5 µM	> 100 µM	9.53 µM	26 µM	29.5 µM	93.8 µM	12.7 µM	> 100 µM	56.9 µM	> 100 µM	24.5 µM	> 100 µM	18.5 µM	60.9 µM	24.9 µM	61.9 µM
COc1cc(-n2ccnc2-c2ccc3ccccc3c2)cc(OC)c1OC	0.408 µM	> 93.6 µM	1.64 µM	> 59 µM		0.472 µM	0.0288 µM	19.4 µM	0.0363 µM	42.5 µM	< 0.0188 µM	> 43.4 µM	3.72 µM	28.9 µM	0.0509 µM	> 48.6 µM	0.175 µM	17.5 µM	0.936 µM	45.2 µM
NCCCCC(NC(=O)C(N)CCCN=C(N)N)C(=O)NC(CCCCN)C(=O)NC(CCCN=C(N)N)C(=O)NC(CCCN=C(N)N)C(=O)NC(CCC(N)=O)C(=O)NC(CCCN=C(N)N)C(=O)NC(CCCN=C(N)N)C(=O)NC(CCCN=C(N)N)C(=O)NCC(=O)NCC(=O)O (configuration not stated)	> 50 µM	> 50 µM	> 50 µM	> 50 µM	> 50 µM	> 50 µM	> 50 µM	> 50 µM	> 50 µM	> 50 µM	> 50 µM	> 50 µM	> 50 µM	> 50 µM	> 50 µM	> 50 µM	> 50 µM	> 50 µM	> 50 µM	> 50 µM
CCSC[C@@H]1C[C@](O)(c2ccc(Cl)cc2)[C@@H](c2ccc(Cl)cc2)O1	18.2 µM	34.3 µM	17.6 µM	34.6 µM	20.5 µM	43.6 µM	18.8 µM	36.1 µM	18.9 µM	35.4 µM	11.1 µM	28.2 µM	20.9 µM	36.9 µM	18.8 µM	38.7 µM	15 µM	30 µM	17.8 µM	36.3 µM
CCCc1nn(C)c2c(=O)[nH]c(-c3cc(S(=O)(=O)N4CCN(C)CC4)ccc3OCC)nc12	> 100 µM	> 100 µM	> 100 µM	> 100 µM	> 100 µM	> 100 µM	> 100 µM	> 100 µM	> 100 µM	> 100 µM	> 100 µM	> 100 µM	23.5 µM	97.5 µM	> 100 µM	> 100 µM	> 100 µM	> 100 µM	94.3 µM	> 100 µM
Cc1ccc2c(C(C[N+](=O)[O-])c3ccccc3)c(-c3ccccc3)[nH]c2c1 (configuration not stated)	85.3 µM	> 95 µM	44.1 µM	> 95 µM	14.2 µM	> 95 µM	16.3 µM	> 95 µM	36.7 µM	> 95 µM	4.54 µM	> 95 µM	11.8 µM	> 95 µM	20.7 µM	> 95 µM	34 µM	> 95 µM	> 95 µM	> 95 µM
OC1CC2CCC(C1)N2CCCN1c2ccccc2Sc2ccc(Cl)cc21 (configuration not stated)		8.01 µM		13.7 µM		6.32 µM		8.27 µM		3.67 µM		5.34 µM		9.39 µM		6.65 µM		9.35 µM		3.61 µM
CC1SC(c2ccccc2Cl)N(NC(=O)C(O)c2ccccc2)C1=O (configuration not stated)	> 100 µM	> 100 µM	> 100 µM	> 100 µM	66 µM	> 100 µM	35.4 µM	> 100 µM	32.4 µM	> 100 µM	40 µM	> 100 µM	> 100 µM	> 100 µM	66.9 µM	> 100 µM	> 100 µM	> 100 µM	31 µM	> 100 µM
COC[C@H](NC(=O)c1cnc(C)s1)C(=O)N[C@@H](COC)C(=O)N[C@@H](Cc1ccccc1)C(=O)[C@@]1(C)CO1	33.3 µM	> 94 µM	37.6 µM	> 100 µM	> 100 µM	> 100 µM	27.5 µM	> 86.3 µM	20.1 µM	72.7 µM	> 61.4 µM	> 100 µM	30.3 µM	> 82.4 µM	31.2 µM	> 100 µM	37.1 µM	> 100 µM	27.3 µM	> 72.2 µM
CCC(CC)n1cnc2c(-c3cnc(N)cn3)nc(N3CC4CCC(C3)O4)nc21	0.374 µM	> 100 µM	0.294 µM	> 100 µM	0.79 µM	> 33.5 µM	0.5 µM	> 100 µM	0.173 µM	1.59 µM	0.351 µM	> 100 µM	0.013 µM	0.145 µM	0.432 µM	> 100 µM	0.93 µM	> 100 µM	0.168 µM	5.15 µM
CCOC(=O)C(=Cc1ccc(C#N)cc1)C(=O)OCC	2.61 µM	11.2 µM	1.81 µM	4.71 µM	3.33 µM	23.4 µM	2.01 µM	4.39 µM	8.56 µM	21.2 µM	1.31 µM	> 100 µM	1.63 µM	4.26 µM	2.03 µM	6.17 µM	3.04 µM	10.3 µM	2.28 µM	7.3 µM
CC1(C)N=C(N)N=C(N)N1c1ccc(CNC(=O)Nc2ccc(S(=O)(=O)F)c(Cl)c2)c(Cl)c1	0.332 µM	> 100 µM	0.867 µM	> 100 µM	> 90.8 µM	> 100 µM	6.34 µM	> 100 µM	5.41 µM	> 100 µM	0.167 µM	> 100 µM	19.9 µM	97.5 µM	4.87 µM	> 100 µM	0.76 µM	> 100 µM	8.39 µM	> 100 µM
Cc1ccc(OP(=O)(Oc2ccc(C)cc2)N2C=Cc3ccccc3C2C#N)cc1 (configuration not stated)		> 100 µM		> 100 µM		> 100 µM		> 100 µM		> 100 µM		> 100 µM		> 100 µM		> 100 µM		> 100 µM		> 100 µM
O=C(O)c1cccc(S(=O)(=O)NCCO)c1		> 100 µM		> 100 µM		> 100 µM		> 100 µM		> 100 µM		> 100 µM		> 100 µM		> 100 µM		> 100 µM		> 100 µM
CC1=C(C#N)C23C(=O)N(c4ccccc4)C(=O)C2=C(O)C=CC3(O)N1Cc1ccc(Cl)cc1Cl (configuration not stated)	5 µM	23.4 µM	2.4 µM	6.83 µM	16.2 µM	39.5 µM	2.89 µM	4.96 µM	1.32 µM	5.64 µM	1.85 µM	4.49 µM	3.02 µM	13.3 µM	5.88 µM	19 µM	2.7 µM	11.6 µM	2.79 µM	11.9 µM
Cc1ccc(S(=O)(=O)ON2C(=O)c3cccc4cc([N+](=O)[O-])cc(c34)C2=O)cc1		> 100 µM		> 100 µM		> 100 µM		> 100 µM		> 100 µM		> 100 µM		> 100 µM		> 100 µM		> 100 µM		> 100 µM
Fc1cccc(COc2ccc(Nc3ncnc4onc(-c5ccccc5)c34)cc2)c1	0.34 µM	29.3 µM	0.347 µM	> 100 µM	3.02 µM	15.7 µM	0.252 µM	2.19 µM	0.405 µM	> 26.7 µM	0.0884 µM	> 100 µM	0.264 µM	62.8 µM	2.43 µM	> 100 µM	0.172 µM	0.806 µM	1.21 µM	36.1 µM
CC(C)(C)OC(=O)C1C(=O)NC(=O)CC1CC(OCc1ccccc1)C(OCc1ccccc1)C(COCc1ccccc1)OCc1ccccc1 (configuration not stated)		> 100 µM	95 µM and 36.4 µM	> 100 µM	36.8 µM and 12.1 µM	> 100 µM and 61.7 µM		> 100 µM		> 100 µM	30.1 µM and 6.47 µM	> 100 µM		> 100 µM and 68.1 µM	60.5 µM and 21.4 µM	> 100 µM		> 100 µM		> 100 µM
Cc1ccc(CNc2ccc3nc(CCC4CCCCC4)[nH]c3c2)cc1	2.52 µM	8.18 µM	2.77 µM	11.4 µM	2.69 µM	9.51 µM	3.06 µM	11.4 µM	1.88 µM	3.92 µM	2.91 µM	8.74 µM	1.23 µM	3.49 µM	1.94 µM	6.82 µM	3.73 µM	> 100 µM	2.87 µM	10.4 µM
O=C(O)Cc1cccc2c(=O)cc(-c3ccccc3)oc12	> 1000 µM	250 µM and > 1000 µM	508 µM	250 µM and > 964 µM	194 µM	250 µM and > 1000 µM	568 µM	250 µM and > 1000 µM	400 µM	250 µM and > 1000 µM		250 µM and > 917 µM	43.9 µM and 318 µM	178 µM and > 948 µM	343 µM	250 µM and > 1000 µM	> 250 µM	> 1000 µM	990 µM	> 1000 µM
COc1cnc2c(c1)C(=O)c1c-2n(CCCN2CCCC2)c(=O)c2cc([N+](=O)[O-])ccc12	0.163 µM	1.52 µM	0.036 µM	15.3 µM	0.026 µM	1.31 µM	0.0586 µM	0.901 µM	< 0.01 µM	0.215 µM	< 0.01 µM	1.34 µM	0.554 µM	15.6 µM	0.0616 µM	4.05 µM	0.0186 µM	1.79 µM	0.373 µM	14.1 µM
NC(=O)c1cc(N2CC2)c([N+](=O)[O-])cc1[N+](=O)[O-]	> 200 µM	> 200 µM	> 200 µM	> 200 µM		> 200 µM	> 200 µM	> 200 µM	> 200 µM	> 200 µM		> 200 µM	> 200 µM	> 200 µM		> 200 µM		> 200 µM		> 200 µM
COc1ccc(Br)cc1NC(=O)Nc1cccc2c1ccn2Cc1ccnc(N)c1	12.7 µM and > 10 µM	58.4 µM and > 10 µM	5.48 µM and 7.26 µM	30.8 µM and > 10 µM	6.08 µM and > 10 µM	60.3 µM and > 10 µM	8.98 µM and > 10 µM	23.6 µM and > 10 µM	3.69 µM and 3.61 µM	17.6 µM and > 10 µM	2.51 µM and 3.11 µM	15.5 µM and > 10 µM	2.18 µM and 1.96 µM	7.9 µM and 8.55 µM	2.44 µM and 2.94 µM	6.31 µM and > 10 µM	7.86 µM and > 10 µM	37.9 µM and > 10 µM	5.33 µM and 7.07 µM	16.6 µM and > 10 µM
Cc1c(Cn2c(C)nc3c(C(=O)O)cc(N4CCOCC4)cc32)cccc1C(F)(F)F	81.7 µM	> 100 µM	41.5 µM	> 100 µM	4.99 µM	40.6 µM	52.3 µM	> 100 µM	11 µM	> 84.4 µM	51.3 µM	> 100 µM	14.1 µM	> 100 µM	4.58 µM	> 100 µM	> 92.9 µM	> 100 µM	34 µM	> 100 µM
COc1cc(-c2nn(-c3cccc(NC(=O)Nc4ccc(Cl)c(C(F)(F)F)c4)c3)cc2-c2ccncc2)ccc1Cl	3.09 µM	11 µM	1.14 µM	9.23 µM	1.04 µM	7.99 µM	0.889 µM	2.44 µM	0.84 µM	2.54 µM	0.884 µM	2.48 µM	0.499 µM	1.48 µM	1.23 µM	7.05 µM	1.5 µM	> 32.5 µM	1.51 µM	13.5 µM
COC(=O)/C=C1/SC(=Nc2cccc(Cl)c2)N(CCc2c[nH]c3ccc(O)cc23)C1=O	1.92 µM	4.07 µM	1.79 µM	3.67 µM	2.41 µM	6.89 µM	1.54 µM	3.23 µM	1.85 µM	4.15 µM	0.522 µM	7.13 µM	2 µM	4.67 µM	1.5 µM	3.32 µM	1.86 µM	4.81 µM	2.29 µM	5.65 µM

— PubChem BioAssay (NCI)
